# Laboratory results reported in patent US20240173255A1, “Polymeric Micelle Coated with Chain-Like Poorly Soluble Drug, Preparation Method and Application” (Hangzhou Hanjing Biotechnology Co., Ltd, priority 2021, published 2024).
# Experiments:
# [1] = Solubility of series A to E drugs in water and 10% Soluplus solution; format: physicochemical; settings: for Solubility in 10% Soluplus: 10% Soluplus solution
# Excerpt: The solubilities of the poorly soluble chain-like drugs of the series A to E according to the present disclosure in water and a 10% Soluplus solution are shown in Table 2.
# [2] = Solubility of compound CPD4 in different solvents or carriers (HPLC of supernatant); format: physicochemical
# Protocol: Taking the symmetric diselenoline molecule CPD4 from series A prepared according to Example 1 as an example, solubilities in different solvents and carriers were measured separately. A test method was conducted as follows: 1 mg of the compound was added into 1 mL of different solvents or carriers separately, ultrasonicated in a water bath for 10 min to fully dissolve the compound to obtain a mixture, and the mixture was stirred at ambient temperature for 12 h, and centrifuged, and a compound concentration in a resulting supernatant was determined by HPLC.
# [3] = Water solubility stated in background; settings: background statement
# [4] = Sodium acetate buffer (pH = 4.5)
smiles,measurement,setting,value
COc1ccc2[se]n(CCCCCn3[se]c4ccc(O)cc4c3=O)c(=O)c2c1 [CPD13],Solubility in 10% Soluplus,[1],>1000 µg/mL
same,Solubility in water,[1],10 µg/mL
COc1ccc2[se]n(CCCCCCn3[se]c4ccc(OCCCN(C)C)cc4c3=O)c(=O)c2c1 [CPD24],Solubility in 10% Soluplus,[1],>1000 µg/mL
same,Solubility in water,[1],<10 µg/mL
COc1ccc2[se]n(CCCCn3[se]c4ccc(OCCCN=[N+]=[N-])cc4c3=O)c(=O)c2c1 [CPD17],Solubility in 10% Soluplus,[1],>1000 µg/mL
same,Solubility in water,[1],<10 µg/mL
O=c1c2ccccc2[se]n1CCCCCn1[se]c2ccccc2c1=O [CPD3],Solubility in 10% Soluplus,[1],300 µg/mL
same,Solubility in water,[1],1 µg/mL
COc1ccc2[se]n(Cc3cccc(Cn4[se]c5ccc(OCCCn6nnnc6C)cc5c4=O)c3)c(=O)c2c1 [CPD34],Solubility in 10% Soluplus,[1],>1000 µg/mL
same,Solubility in water,[1],<10 µg/mL
O=C(CCCCCn1[se]c2ccccc2c1=O)Nc1ccccc1 [CPD37],Solubility in 10% Soluplus,[1],>1000 µg/mL
same,Solubility in water,[1],<10 µg/mL
O=c1c2ccccc2[se]n1CCCn1[se]c2ccccc2c1=O [CPD1],Solubility in 10% Soluplus,[1],200 µg/mL
same,Solubility in water,[1],4 µg/mL
COc1ccc2[se]n(CCCn3[se]c4ccc(OCCCn5nnnc5C)cc4c3=O)c(=O)c2c1 [CPD26],Solubility in 10% Soluplus,[1],>1000 µg/mL
same,Solubility in water,[1],<10 µg/mL
COc1ccc2[se]n(CCCCCCCn3[se]c4ccc(O)cc4c3=O)c(=O)c2c1 [CPD15],Solubility in 10% Soluplus,[1],>1000 µg/mL
same,Solubility in water,[1],10 µg/mL
O=c1c2cccc(F)c2[se]n1CCCCCn1[se]c2c(F)cccc2c1=O [CPD8],Solubility in 10% Soluplus,[1],300 µg/mL
same,Solubility in water,[1],1 µg/mL
O=c1c2cccc(F)c2[se]n1CCCCCCn1[se]c2c(F)cccc2c1=O [CPD9],Solubility in 10% Soluplus,[1],800 µg/mL
same,Solubility in water,[1],1 µg/mL
O=c1c2ccccc2[se]n1CCCCCCCn1[se]c2ccccc2c1=O [CPD5],Solubility in 10% Soluplus,[1],500 µg/mL
same,Solubility in water,[1],1 µg/mL
O=c1c2cccc(F)c2[se]n1CCCCn1[se]c2c(F)cccc2c1=O [CPD7],Solubility in 10% Soluplus,[1],250 µg/mL
same,Solubility in water,[1],2 µg/mL
O=c1c2ccccc2[se]n1CCCCCCn1[se]c2ccccc2c1=O [CPD4],Dissolution multiple,[2]; Acetone,275
same,Solubility,[2]; Acetone,440 ± 40 µg/mL
same,Dissolution multiple,[2]; Acetonitrile,263
same,Solubility,[2]; Acetonitrile,420 ± 5 µg/mL
same,Dissolution multiple,[2]; DMF,10819
same,Solubility,[2]; DMF,17310 ± 320 µg/mL
same,Dissolution multiple,[2]; DMSO,21131
same,Solubility,[2]; DMSO,33810 ± 700 µg/mL
same,Dissolution multiple,[2]; Dichloromethane,1981
same,Solubility,[2]; Dichloromethane,3170 ± 160 µg/mL
same,Dissolution multiple,[2]; Ethanol,800
same,Solubility,[2]; Ethanol,1280 ± 40 µg/mL
same,Dissolution multiple,[2]; Ethyl acetate,150
same,Solubility,[2]; Ethyl acetate,240 ± 20 µg/mL
same,Dissolution multiple,[2]; Hydrochloric acid (pH = 1.2),1.38
same,Solubility,[2]; Hydrochloric acid (pH = 1.2),2.2 ± 0.26 µg/mL
same,Dissolution multiple,[2]; Isopropanol,613
same,Solubility,[2]; Isopropanol,980 ± 60 µg/mL
same,Dissolution multiple,[2]; Liposome: Cholesterol,46
same,Solubility,[2]; Liposome: Cholesterol,60 ± 1 µg/mL
same,Dissolution multiple,[2]; Liposome: Lecithin,40
same,Solubility,[2]; Liposome: Lecithin,40 ± 5 µg/mL
same,Dissolution multiple,[2]; Methanol,881
same,Solubility,[2]; Methanol,1410 ± 130 µg/mL
same,Dissolution multiple,[2]; PBS (pH = 7.4),0.5
same,Solubility,[2]; PBS (pH = 7.4),0.8 ± 0.15 µg/mL
same,Dissolution multiple,[2]; [4],0.81
same,Solubility,[2]; [4],1.3 ± 0.47 µg/mL
same,Dissolution multiple,[2]; Solid adjuvant F68,8.1
same,Solubility,[2]; Solid adjuvant F68,13 ± 3 µg/mL
same,Dissolution multiple,[2]; Solid adjuvant F127,61
same,Solubility,[2]; Solid adjuvant F127,98 ± 8 µg/mL
same,Dissolution multiple,[2]; Solid adjuvant HP-β-CD,38
same,Solubility,[2]; Solid adjuvant HP-β-CD,60 ± 3 µg/mL
same,Dissolution multiple,[2]; Solid adjuvant PEG2000,4.4
same,Solubility,[2]; Solid adjuvant PEG2000,7 ± 2 µg/mL
same,Dissolution multiple,[2]; Solid adjuvant PEG4000,5
same,Solubility,[2]; Solid adjuvant PEG4000,8 ± 1 µg/mL
same,Dissolution multiple,[2]; Solid adjuvant PEG6000,3.8
same,Solubility,[2]; Solid adjuvant PEG6000,6 ± 1 µg/mL
same,Dissolution multiple,[2]; Solid adjuvant SBE-β-CD,44
same,Solubility,[2]; Solid adjuvant SBE-β-CD,71 ± 4 µg/mL
same,Dissolution multiple,[2]; Soluplus,400
same,Solubility,[2]; Soluplus,515 ± 8 µg/mL
same,Dissolution multiple,[2]; n-Octanol,662
same,Solubility,[2]; n-Octanol,1060 ± 80 µg/mL
same,Solubility,[2]; water,1.6 ± 0.05 µg/mL
same,Solubility in 10% Soluplus,[1],500 µg/mL
same,Solubility in water,[1],1 µg/mL
O=C(NCCCCCn1[se]c2ccccc2c1=O)c1ccccc1 [CPD38],Solubility in 10% Soluplus,[1],>1000 µg/mL
same,Solubility in water,[1],<10 µg/mL
COc1ccc2[se]n(CCCCCCn3[se]c4ccc(OCCCn5nnnc5C)cc4c3=O)c(=O)c2c1 [CPD29],Solubility in 10% Soluplus,[1],>1000 µg/mL
same,Solubility in water,[1],<10 µg/mL
COc1ccc2[se]n(Cc3cccc(Cn4[se]c5ccc(O)cc5c4=O)c3)c(=O)c2c1 [CPD31],Solubility in 10% Soluplus,[1],>1000 µg/mL
same,Solubility in water,[1],<10 µg/mL
COc1ccc2[se]n(CCCCn3[se]c4ccc(OCCCn5nnnc5C)cc4c3=O)c(=O)c2c1 [CPD27],Solubility in 10% Soluplus,[1],>1000 µg/mL
same,Solubility in water,[1],<10 µg/mL
COc1ccc2[se]n(CCCCCCn3[se]c4ccc(O)cc4c3=O)c(=O)c2c1,water solubility,[3],3.3 µg/mL
COc1ccc2[se]n(CCCCCn3[se]c4ccc(OCCCN=[N+]=[N-])cc4c3=O)c(=O)c2c1 [CPD18],Solubility in 10% Soluplus,[1],>1000 µg/mL
same,Solubility in water,[1],<10 µg/mL
COc1ccc2[se]n(CCCn3[se]c4ccc(O)cc4c3=O)c(=O)c2c1 [CPD11],Solubility in 10% Soluplus,[1],>1000 µg/mL
same,Solubility in water,[1],15 µg/mL
COc1ccc2[se]n(CCCCCCCn3[se]c4ccc(OCCCN=[N+]=[N-])cc4c3=O)c(=O)c2c1 [CPD20],Solubility in 10% Soluplus,[1],>1000 µg/mL
same,Solubility in water,[1],<10 µg/mL
COc1ccc2[se]n(Cc3cccc(Cn4[se]c5ccc(OCCCN(C)C)cc5c4=O)c3)c(=O)c2c1 [CPD33],Solubility in 10% Soluplus,[1],>1000 µg/mL
same,Solubility in water,[1],<10 µg/mL
COc1ccc2[se]n(CCCn3[se]c4ccc(OCCCN(C)C)cc4c3=O)c(=O)c2c1 [CPD21],Solubility in 10% Soluplus,[1],>1000 µg/mL
same,Solubility in water,[1],<10 µg/mL
COc1ccc2[se]n(Cc3cccc(Cn4[se]c5ccc(OCCCN=[N+]=[N-])cc5c4=O)c3)c(=O)c2c1 [CPD32],Solubility in 10% Soluplus,[1],>1000 µg/mL
same,Solubility in water,[1],<10 µg/mL
COc1ccc2[se]n(CCCCCCn3[se]c4ccc(OCCCN=[N+]=[N-])cc4c3=O)c(=O)c2c1 [CPD19],Solubility in 10% Soluplus,[1],>1000 µg/mL
same,Solubility in water,[1],<10 µg/mL
COc1ccc2[se]n(CCCCCn3[se]c4ccc(OCCCn5nnnc5C)cc4c3=O)c(=O)c2c1 [CPD28],Solubility in 10% Soluplus,[1],>1000 µg/mL
same,Solubility in water,[1],<10 µg/mL
O=c1c2cccc(F)c2[se]n1CCCCCCCn1[se]c2c(F)cccc2c1=O [CPD10],Solubility in 10% Soluplus,[1],600 µg/mL
same,Solubility in water,[1],1 µg/mL
COc1ccc2[se]n(CCCCCn3[se]c4ccc(OCCCN(C)C)cc4c3=O)c(=O)c2c1 [CPD23],Solubility in 10% Soluplus,[1],>1000 µg/mL
same,Solubility in water,[1],<10 µg/mL
O=c1c2ccccc2[se]n1CCCCn1[se]c2ccccc2c1=O [CPD2],Solubility in 10% Soluplus,[1],200 µg/mL
same,Solubility in water,[1],1 µg/mL
COc1ccc2[se]n(CCCCn3[se]c4ccc(OCCCN(C)C)cc4c3=O)c(=O)c2c1 [CPD22],Solubility in 10% Soluplus,[1],>1000 µg/mL
same,Solubility in water,[1],<10 µg/mL
O=C(CCCCCn1[se]c2ccccc2c1=O)Oc1ccccc1 [CPD36],Solubility in 10% Soluplus,[1],>1000 µg/mL
same,Solubility in water,[1],<10 µg/mL
COc1ccc2[se]n(CCCCCCCn3[se]c4ccc(OCCCN(C)C)cc4c3=O)c(=O)c2c1 [CPD25],Solubility in 10% Soluplus,[1],>1000 µg/mL
same,Solubility in water,[1],<10 µg/mL
COc1ccc2[se]n(CCCCCCCn3[se]c4ccc(OCCCn5nnnc5C)cc4c3=O)c(=O)c2c1 [CPD30],Solubility in 10% Soluplus,[1],>1000 µg/mL
same,Solubility in water,[1],<10 µg/mL
